Source: ChEMBL document CHEMBL1201862, “PubChem BioAssay data set” (2004)
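Assay format: 96-well plates, 48-hour exposure. At the GI50, growth is halved.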 The source made the active and inactive calls. Cut-off read from the data, not from the text of the source: active = GI50 up to about 1.1 µM and inactive = higher.

Key:
Test in all cases: inhibition of tumour cell growth, NCI panel, 48 h
NCI-H522 = tested on: NCI-H522
TK-10 = tested on: TK-10
OVCAR-5 = tested on: OVCAR-5
LOX IMVI = tested on: LOX IMVI
NCI-H460 = tested on: NCI-H460
HOP-92 = tested on: HOP-92
UACC-257 = tested on: UACC-257
MDA-MB-231 = tested on: MDA-MB-231
RXF 393 = tested on: RXF 393
Hs-578T = tested on: Hs-578T
HCT-15 = tested on: HCT-15
SN12C = tested on: SN12C
MOLT-4 = tested on: MOLT-4
SF-268 = tested on: SF-268
CCRF-CEM = tested on: CCRF-CEM
PC-3 = tested on: PC-3
DU-145 = tested on: DU-145
HCC 2998 = tested on: HCC 2998
RPMI-8226 = tested on: RPMI-8226

Row | SMILES | GI50 (NCI-H522) | GI50 (TK-10) | GI50 (OVCAR-5) | GI50 (LOX IMVI) | GI50 (NCI-H460) | GI50 (HOP-92) | GI50 (UACC-257) | GI50 (MDA-MB-231) | GI50 (RXF 393) | GI50 (Hs-578T) | GI50 (HCT-15) [µM] | GI50 (SN12C) | GI50 (MOLT-4) | GI50 (SF-268) | GI50 (CCRF-CEM) | GI50 (PC-3) | GI50 (DU-145) | GI50 (HCC 2998) | GI50 (RPMI-8226)
1 | CNC(=O)c1nn[nH]c1Sc1c([N+](=O)[O-])ncn1C | > 100 µM (inactive) | > 100 µM (inactive) | > 100 µM (inactive) | > 100 µM (inactive) | > 100 µM (inactive) | > 100 µM (inactive) | > 100 µM (inactive) | > 100 µM (inactive) | > 100 µM (inactive) | > 100 µM (inactive) | > 100 | > 100 µM (inactive) | > 100 µM (inactive) | > 100 µM (inactive) | > 100 µM (inactive) | > 100 µM (inactive) | > 100 µM (inactive) | > 100 µM (inactive) | –
2 | CCCCCCCCCCCC1=C(O)C(=O)C(CC2=C(O)C(=O)C(CCCCCCCCCCC)=C(O)C2=O)=C(O)C1=O | 40.6 µM (inactive) | 46.6 µM (inactive) | > 100 µM (inactive) | > 100 µM (inactive) | > 100 µM (inactive) | 16.3 µM (inactive) | > 100 µM (inactive) | 28.6 µM (inactive) | 3.19 µM (inactive) | 22.8 µM (inactive) | > 100 | > 100 µM (inactive) | > 100 µM (inactive) | 26.5 µM (inactive) | 21.2 µM (inactive) | > 100 µM (inactive) | > 100 µM (inactive) | > 100 µM (inactive) | –
3 | COc1cc([C@@H]2c3cc4c(cc3[C@@H](OC3OC5COC(C)OC5C(OC(=O)CN5CCN(C)CC5)C3OC(=O)CN3CCN(C)CC3)C3COC(=O)[C@@H]32)OCO4)cc(OC)c1OC(=O)CN1CCN(C)CC1 (stereo not given in full) | 27.2 µM (inactive) | > 100 µM (inactive) | > 100 µM (inactive) | 36.5 µM (inactive) | 11.2 µM (inactive) | > 100 µM (inactive) | > 100 µM (inactive) | 54.3 µM (inactive) | > 100 µM (inactive) | 56 µM (inactive) | > 100 | 44.1 µM (inactive) | 2.49 µM (inactive) | 75.3 µM (inactive) | 9.29 µM (inactive) | > 100 µM (inactive) | 44.7 µM (inactive) | 32.1 µM (inactive) | –
4 | COC(=O)c1cc(-c2ccc3ccccc3c2)nc(O)c1C#N | > 100 µM (inactive) | > 100 µM (inactive) | > 100 µM (inactive) | > 100 µM (inactive) | > 100 µM (inactive) | > 100 µM (inactive) | > 100 µM (inactive) | > 100 µM (inactive) | > 100 µM (inactive) | > 100 µM (inactive) | > 100 | > 100 µM (inactive) | – | > 100 µM (inactive) | – | > 100 µM (inactive) | > 100 µM (inactive) | 17.1 µM (inactive) | > 100 µM (inactive)
5 | COc1cc(/C=C2\S/C(=N/Nc3nc(-c4ccc(Br)cc4)cs3)NC2=O)cc(OC)c1OC | 12.5 µM (inactive) | 12 µM (inactive) | 18.2 µM (inactive) | 9.29 µM (inactive) | 11.9 µM (inactive) | 3.63 µM (inactive) | 18.2 µM (inactive) | 14.3 µM (inactive) | 4.07 µM (inactive) | 11.9 µM (inactive) | 11.3 | 28.6 µM (inactive) | 3.78 µM (inactive) | 20 µM (inactive) | 2.45 µM (inactive) | 4.03 µM (inactive) | 19.3 µM (inactive) | 16.3 µM (inactive) | –
6 | CC12O[C@]3([C@H](C(=O)N4CCOC43C)[C@H]1Cl)[C@H]1O[C@H]12 (stereo not given in full) | > 100 µM (inactive) | > 100 µM (inactive) | > 100 µM (inactive) | > 100 µM (inactive) | > 100 µM (inactive) | > 100 µM (inactive) | > 100 µM (inactive) | > 100 µM (inactive) | – | > 100 µM (inactive) | > 100 | > 100 µM (inactive) | > 100 µM (inactive) | > 100 µM (inactive) | – | > 100 µM (inactive) | > 100 µM (inactive) | > 100 µM (inactive) | 94.8 µM (inactive)
7 | CC#CC(O)(C(=O)OCCCN(C)C)C1CCCCC1 (stereo not given) | – | > 100 µM (inactive) | > 100 µM (inactive) | > 100 µM (inactive) | > 100 µM (inactive) | > 100 µM (inactive) | > 100 µM (inactive) | > 100 µM (inactive) | > 100 µM (inactive) | > 100 µM (inactive) | > 100 | > 100 µM (inactive) | > 100 µM (inactive) | > 100 µM (inactive) | > 100 µM (inactive) | > 100 µM (inactive) | > 100 µM (inactive) | > 100 µM (inactive) | > 100 µM (inactive)
8 | O=c1[nH]c(Nc2nc3ccccc3[nH]2)nc2c1CCC2 | > 100 µM (inactive) | > 100 µM (inactive) | > 100 µM (inactive) | > 100 µM (inactive) | > 100 µM (inactive) | 30.8 µM (inactive) | > 100 µM (inactive) | 14.8 µM (inactive) | 96.4 µM (inactive) | 22.6 µM (inactive) | > 100 | > 100 µM (inactive) | – | 43.6 µM (inactive) | > 100 µM (inactive) | > 100 µM (inactive) | > 100 µM (inactive) | > 100 µM (inactive) | –
9 | CCOC(=O)c1cnc2oc(/C=N/N3CC(CN4CCOCC4)OC3=O)cc2c1O (stereo not given) | – | > 100 µM (inactive) | > 100 µM (inactive) | > 100 µM (inactive) | > 100 µM (inactive) | > 100 µM (inactive) | > 100 µM (inactive) | > 100 µM (inactive) | > 100 µM (inactive) | > 100 µM (inactive) | > 100 | > 100 µM (inactive) | > 100 µM (inactive) | > 100 µM (inactive) | > 100 µM (inactive) | > 100 µM (inactive) | > 100 µM (inactive) | > 100 µM (inactive) | > 100 µM (inactive)
10 | C[C@@H]1C[C@@]2(O[C@@H]2C)C(=O)O[C@@H]2CCN3CC=C(COC(=O)[C@]1(C)O)[C@H]23 | > 100 µM (inactive) | > 100 µM (inactive) | > 100 µM (inactive) | > 100 µM (inactive) | > 100 µM (inactive) | 10.7 µM (inactive) | > 100 µM (inactive) | > 100 µM (inactive) | – | > 100 µM (inactive) | > 100 | > 100 µM (inactive) | > 100 µM (inactive) | > 100 µM (inactive) | > 100 µM (inactive) | > 100 µM (inactive) | > 100 µM (inactive) | > 100 µM (inactive) | > 100 µM (inactive)
11 | CCOc1ccc2nc3nc(O)nc(C)c3c(NCCCN(CC)CC)c2c1 | > 100 µM (inactive) | > 100 µM (inactive) | > 100 µM (inactive) | > 100 µM (inactive) | > 100 µM (inactive) | > 100 µM (inactive) | > 100 µM (inactive) | > 100 µM (inactive) | > 100 µM (inactive) | > 100 µM (inactive) | > 100 | > 100 µM (inactive) | > 100 µM (inactive) | > 100 µM (inactive) | > 100 µM (inactive) | > 100 µM (inactive) | > 100 µM (inactive) | > 100 µM (inactive) | –
